Measured values from article PMC9050848, “Carbamoyl-N-aryl-imine-urea: a new framework to obtain a putative leishmanicidal drug-candidate” (RSC Advances, 2020).
Where two headings read alike, the source gives them in different places.

Columns and labels:
[1] = tested on: J774.A1 cell lines (macrophages); assay: Cytotoxicity against J774.A1 macrophages, MTT assay; format: cell-based, murine (BALB/c); details: Mus musculus, read-out: IC50 (concentration required to give 50% death of cells)
Method: Initially the cytotoxic profile of compounds 9a–e and 10a–e against J774.A1 cell lines (i.e., BALB/c macrophage cell lines) was investigated. Therefore, these cells were exposed to different concentrations (0.1–100 μM) of compounds 9a–e and 10a–e and the cytotoxic effect was measured after 48 h of drug incubation, by using MTT-based assay. The cytotoxicity was expressed as IC50 values (that means the concentration of a drug that kills half of the tested cells in culture). As depicted in Table 1, most compounds have shown low cytotoxic activity with IC50 > 100 μM.
These adherent-phenotype macrophage lines were cultured in Dulbecco's Modified Eagle's medium (DMEM, Sigma) supplemented with 10% FBS at 37 °C with 95% humidity and 5% CO2.
To evaluate the cytotoxic activity against the J774.A1 cell line, the host cells were plated in 96-well cell culture plate (flat bottom, clear, Corning) at 2 × 10^5 cells per well in complete culture medium 10% FBS at 37 °C. After 1 h wells were washed with warm Hank's Balanced Salt solution (HBSS) to remove non-adherent cells, leaving approximately 10^5 adherent macrophages. All cultures were done in DMEM complete supplemented with 10% FBS. The compounds and pentamidine were added at serial concentrations (0.1–100 μM). The cells were also cultured with medium free from compounds or vehicle (basal growth control) or in media with DMSO 0.1% (vehicle control). Positive control (dead cells) was obtained by cellular lysis with 1% of Triton 100× in DMEM complete (because it is a detergent in this concentration, Triton 100× destabilizes the cell membrane of macrophages, causing cell death). The cytotoxicity was evaluated by the MTT assay.[31] This assay consists of indirectly measuring cell viability through the mitochondrial enzymatic activity of macrophages. Viable cells are capable of reducing MTT to formazan. For this, after the incubation of plate for 48 h, 100 μL of MTT solution (0.5 mg mL^−1, in DMEM medium) was added per well, and the plate was incubated for 1 h. Then, the supernatant of each well was retired and was added 150 μL of DMSO. The absorbance was determined at 570 nm in a microplate reader. The cell viability of the cultures treated with the compounds was compared to the death pattern obtained in the control cultures. In the positive control, the cell death was confirmed when the optical density was equal to zero, confirming that the cells were not viable. Data obtained from experiments were expressed as the mean ± standard error of the mean (mean ± S.E.M.) and statistical differences between the treated and the vehicle groups of experiments were evaluated by ANOVA and Dunnett hoc tests.

[2] = tested on: L. braziliensis intracellular amastigotes; assay: Leishmanicidal activity against intracellular amastigote forms of L. braziliensis in J774.A1 macrophages; format: cell-based; details: Leishmania braziliensis; for IC50: read-out: IC50 (concentration required to give 50% death of parasites); for Emax: maximum toxicity vs 0.1% DMSO group, read-out: Maximum effect (% ± S.E.M.)
Source text: Further, the leishmanicidal activity against intracellular amastigotes forms of L. braziliensis were also investigated (Table 2).
(§1) Promastigotes of L. amazonensis (MHOM/BR/77/LTB0016) were obtained from Dr Eduardo Caio Torres dos Santos at Oswaldo Cruz Institute – Fiocruz. Promastigotes of L. braziliensis (MHOM/BR/01/BA788) were obtained from Dr Valéria de Matos Borges at Gonçalo Moniz Research Center – Fiocruz. The parasites were maintained in vitro in Schneider's medium, supplemented with 10% FBS and 2% human urine at 27 °C in BOD incubator.
(§2) Initially, compounds 9a–e and 10a–e were evaluated at screening concentration of 30 μM against L. amazonensis, using DMSO 0.03% as vehicle control, since this was the DMSO concentration (vehicle) remaining in each well with the tested compounds. […] Vehicle control used was DMSO 0.1%, since this was the concentration of DMSO (vehicle) existing in each well with the tested substances in the highest concentration used.
(§3) To assess the activity of the test derivatives against the amastigote stage of L. amazonensis and L. braziliensis the model of infection in coverglass was realized.[31] The murine macrophages (J774.A1 cell line) were prepared in 24-well cell culture plate (flat bottom, clear, Corning) at 2 × 10^5 adherent cells per well, infected with 2 × 10^6 promastigotes in glass coverslips placed inside 1 mL medium culture. The cultures were cultured or not with the test derivatives or reference drugs, and kept for 24 h at 37 °C, 5% CO2. After 24 h of incubation, the coverslips were washed, stained with Giemsa–May–Grünwald, and intracellular amastigotes were counted in 100 macrophages, using an optical microscope, on the objective of 100×. Thus, during the counting of 100 macrophages, the amount of amastigotes present within these defence cells was also determined. Data obtained from in vitro experiments were expressed as the mean ± S.E.M. of duplicate cultures of representative assays. Statistical differences between the treated and the control groups were evaluated by ANOVA and Dunnett hoc tests. Differences with a p value < 0.05 or lower were considered significant.

[3] = tested on: L. amazonensis intracellular amastigotes; assay: Leishmanicidal activity against intracellular amastigote forms of L. amazonensis in J774.A1 macrophages; format: cell-based; details: for Effect on the number of intracellular amastigotes: L. amazonensis, screening concentration 30 μM; for IC50 / Emax: Leishmania amazonensis; for IC50: read-out: IC50 (concentration required to give 50% death of parasites); for Emax: maximum toxicity vs 0.1% DMSO group, read-out: Maximum effect (% ± S.E.M.)
Method: Considering that L. amazonensis is one of the causative species of cutaneous leishmaniasis in Brazil,[20] we have investigated the leishmanicidal effect of compounds 9a–e and 10a–e against L. amazonensis amastigotes forms. Initially, all compounds were evaluated at 30 μM. […] Then, they were selected to determine their IC50 value for intracellular amastigote forms of L. amazonensis.
as §1, §2, §3

L. amazonensis = assay: Murine model of cutaneous leishmaniasis induced by L. amazonensis (efficacy); format: in vivo, BALB/c mice; details: 30 μmol per kg per day × 28 days
Method: So, BALB/c mice infected with L. amazonensis were treated during 28 days with compound 10e (30 μmol per kg per day, i.p.) or with the standards miltefosine (30 μmol per kg per day, p.o.) and meglumine antimoniate (30 μmol per kg per day, i.p.).
(§4) This study (protocol number 2013.02) was approved by the Ethics Committee for Animal Experimentation of the Federal University of Alagoas (Brazil). All animals received humane care in compliance with the ‘Principles of laboratory animal care’ formulated by the National Society for Medical Research and the ‘Guide for the care and use of laboratory animals’ prepared by the National Academy of Sciences (Washington, DC). Then, 1 × 10^5 stationary promastigotes (5 days of culture in Schneider's medium) of L. amazonensis were inoculated subcutaneously into the right ear dermis of 6 week-old female BALB/c mice weighing ca. 20 g. and later treated with 10e (i.p.), miltefosine (p.o.) or meglumine antimoniate (i.p.) at 30 μmol kg^−1 × 28 days. The vehicle to solubilize 10e (LASSBio-1736) and standard drugs was Tween 20 (50 μL) and sterile water for injection, which was also administrated by i.p. route in two controls groups (non-infected control and infected control). The lesion size was measured using a paquimeter.[32] The parasite loads of infected ears and draining lymph nodes were determined using a quantitative limiting-dilution assay.[33] Toxicity was also evaluated due to alterations on spleen weight and by biochemistry dosages in plasma, performed according to the manufacturer's instructions (Doles, BRA). Data obtained from experiments were expressed as the mean ± S.E.M. and statistical differences between the treated and the vehicle groups of experiments were evaluated by ANOVA and Dunnett hoc tests.

[4] = Toxicity in treated infected mice (survival, spleen weight, serum biochemistry); format: in vivo; details: infected BALB/c mice, 30 μmol kg−1 daily for 28 days, n = 5
Method: The survival of BALB/c mice infected with L. amazonensis untreated and treated during 28 days with the daily dose of 30 μmol kg^−1 with meglumine antimoniate, miltefosine and 10e (LASSBio-1736) was analyzed. Animal mortality was not observed for the groups treated with 10e and miltefosine, while 20% of death was identified from the 25th day of treatment with meglumine antimoniate (Fig. 11). After the end of treatment, the animal's toxicity was investigated looking for any alterations on spleen weight and on alanine aminotransferase (ALT), aspartate aminotransferase (AST), creatinine (CREA) and urea serum levels.
as §4

[5] = J774.A1 macrophages, 48 h incubation, MTT, 0.1–100 μM
[6] = J774.A1, L. braziliensis intracellular amastigotes, 24 h
[7] = J774.A1, L. braziliensis intracellular amastigotes
[8] = L. amazonensis amastigotes, ratio of IC50 values
[9] = J774.A1, L. amazonensis intracellular amastigotes, 24 h
[10] = J774.A1, L. amazonensis intracellular amastigotes

| Compound | IC50 [1, 5] [µM] | IC50 [2, 6] [µM] | Emax [2, 7] [%] | Effect on the number of intracellular amastigotes [3] | IC50 [3, 9] [µM] | Emax [3, 10] [%] | further results |
| --- | --- | --- | --- | --- | --- | --- | --- |
| O=C(N/N=C/c1ccc([N+](=O)[O-])o1)NNC(=O)c1ccc(Cl)cc1 [LASSBio-1491 (9a), 4-chloro-phenylcarbamoyl-N-5-nitrofuranimine-urea] | > 100 | – | – | – | – | – | – |
| O=C(N/N=C/c1ccc([N+](=O)[O-])o1)NNC(=O)c1ccc(Cl)cc1Cl [LASSBio-1703 (10a), 2,4-dichloro-phenylcarbamoyl-N-5-nitrofuranimine-urea] | > 100 | – | – | – | – | – | – |
| O=C(N/N=C/c1ccccc1O)NNC(=O)c1ccc(Cl)cc1 [LASSBio-1704 (9b), 4-chloro-phenylcarbamoyl-N-2-hydroxyphenylimine-urea] | > 100 | > 100 | 48.1 ± 4.5 | decreased the number of intracellular amastigotes | 85.3 ± 5 | 55.6 ± 1.4 | Times less potent than miltefosine [3, 8]: ~4.0 times; Times less potent than pentamidine [3, 8]: about 2.5 times |
| O=C(N/N=C/c1ccccc1O)NNC(=O)c1ccc(Cl)cc1Cl [LASSBio-1705 (10b), 2,4-dichloro-phenylcarbamoyl-N-2-hydroxyphenylimine-urea] | 78.1 ± 4.5 | – | – | – | – | – | – |
| O=C(N/N=C/c1ccc(O)cc1)NNC(=O)c1ccc(Cl)cc1 [LASSBio-1706 (9d), 4-chloro-phenylcarbamoyl-N-4-hydroxyphenylimine-urea] | 86.2 ± 8.7 | 3.6 ± 0.6 | 70.4 ± 1.9 | decreased the number of intracellular amastigotes | > 100 | – | – |
| O=C(N/N=C/c1ccc(O)cc1)NNC(=O)c1ccc(Cl)cc1Cl [LASSBio-1707 (10d), 2,4-dichloro-phenylcarbamoyl-N-4-hydroxyphenylimine-urea] | > 100 | > 100 | – | decreased the number of intracellular amastigotes | > 100 | 44.4 ± 0.2 | – |
| O=C(N/N=C/c1cccc(O)c1)NNC(=O)c1ccc(Cl)cc1Cl [LASSBio-1708 (10c), 2,4-dichloro-phenylcarbamoyl-N-3-hydroxyphenylimine-urea] | > 100 | > 100 | – | decreased the number of intracellular amastigotes | > 100 | 31 ± 1.7 | – |
| O=C(N/N=C/c1cccc(O)c1)NNC(=O)c1ccc(Cl)cc1 [LASSBio-1709 (9c), 4-chloro-phenylcarbamoyl-N-3-hydroxyphenylimine-urea] | 85.2 ± 2.3 | – | – | – | – | – | – |
| O=C(N/N=C/c1ccc(C(F)(F)F)cc1)NNC(=O)c1ccc(Cl)cc1 [LASSBio-1737 (9e)] | > 100 | – | – | – | – | – | – |
| CCCCCCCCCCCCCCCCOP(=O)([O-])OCC[N+](C)(C)C [Miltefosine, reference compound] | – | – | 84 ± 1.5 | – | – | 58.1 ± 4.9 | Appearance of lesions on the first day after end of treatment (photographs) (L. amazonensis): complete healing of the nodules and ulcers; Lesion sizes of infected ear (L. amazonensis; 10e and meglumine antimoniate i.p., miltefosine p.o.): reduced the lesion sizes of infected ear; Parasite load in infected ear (L. amazonensis; limiting-dilution assay): decreased parasite load in infected ear; IC50 ([2]; J774.A1, 24 h): 32.1 ± 1.1 µM; Animal mortality [4]: not observed; IC50 ([1]; J774.A1, 48 h): > 100 µM; IC50 ([3]; J774.A1, 24 h): 22 ± 1.8 µM |
| N=C(N)c1ccc(OCCCCCOc2ccc(C(=N)N)cc2)cc1 [Pentamidine, reference compound] | 35.5 ± 3.4 | 78.4 ± 4.7 | 61.7 ± 2.2 | – | 32.8 ± 4.6 | 59.1 ± 5.6 | – |
| meglumine antimoniate [reference compound] | – | – | – | – | – | – | Appearance of lesions on the first day after end of treatment (photographs) (L. amazonensis): the lesions showed an intense swelling and ulcerated; Animal mortality [4]: 20% |
